Reference: US12630804B2, “Blood brain barrier model” (UNIVERSITY OF LANCASHIRE, priority 2016, dated 2026)

Tested on: blood brain barrier model
Test: Permeability of test/known compounds across the blood brain barrier model (TEER and fluorescence in basolateral compartment)
Assay type: in vitro ADME, human
Details: added to apical side; TEER and appearance in basolateral compartment, 0.5-6 h; aptamers 100 nM cy5-tagged
Procedure: The blood brain barrier model was exposed to a test/known compounds to determine permeability. The final concentration of compound introduced to the apical well was determined previously using a viability assay, and a concentration chosen that minimised toxicity to the BBB cells (<IC50). Test compounds (short DNA oligonucleotide glioma selective aptamers (100 nM) tagged with cy5 (GL21, scrambled) and lipid nanoparticles (NPs) loaded with 0.33 μg/ml docetaxel or 2.87 μg/ml curcumin tagged with rhodamine123 and transferrin ligand) were prepared in house. When the TEER values for the BBB model peaked, 3.33 μg/ml Evans Blue Dye (EBD) was added to the apical side of the BBB model to determine if the barrier formed was intact. The test and control compounds were introduced to the well and time dependent TEER measurements were taken along with fluorescent measurements of samples at time points between 0.5-6 h from the basolateral side of the well for determination of appearance of the fluorescent tagged compounds. […] The activity was calculated as % fluorescence relative to the stock concentration of the NPs and then plotted
The blood brain barrier model was exposed to a test compound and the permeability of the barrier to said test compound was measured and compared to the permeability of the blood brain barrier model to known compounds. […]

permeation across blood brain barrier model: no permeability
SMILES: Cc1cc(-c2ccc(N=Nc3ccc4c(S(=O)(=O)[O-])cc(S(=O)(=O)[O-])c(N)c4c3O)c(C)c2)ccc1N=Nc1ccc2c(S(=O)(=O)[O-])cc(S(=O)(=O)[O-])c(N)c2c1O.[Na+].[Na+].[Na+].[Na+] [Evan's blue, Evan's Blue]
